According to BindingDB's records for doi:10.1021/jm00163a069 (Merck Sharp & Dohme Research Laboratories, 1990):

Test: Inhibition of binding of [125I]CCK-8 to Cholecystokinin type B receptor in guinea pig brain tissues

Q: For O=C(NCC1CNc2ccccc2C(c2ccccc2F)=N1)C(O)c1ccccc1 (stereo unspecified), which IC50 is on record?
A: > 100 µM
